Measurements published in BindingDB's records for PubMed 9454810 (Sanofi Recherche, 1998).

What was measured:
Substance-P receptor = Substance-P receptor (Homo sapiens, UniProt P25103)
Histamine H2 receptor = Histamine H2 receptor (Homo sapiens, UniProt P25021)
[1] = target: Endothelin receptor type B (Homo sapiens, UniProt P24530)
Histamine H3 receptor = Histamine H3 receptor (Homo sapiens, UniProt Q9Y5N1)
[2] = target: Muscarinic acetylcholine receptor M1 (Homo sapiens, UniProt P11229)
[3] = target: Leukotriene B4 receptor 2 (Homo sapiens, UniProt Q9NPC1)
Adenosine receptor A2a = Adenosine receptor A2a (Homo sapiens, UniProt P29274)
[4] = target: Alpha-1A adrenergic receptor (Homo sapiens, UniProt P35348)
Histamine H1 receptor = Histamine H1 receptor (Homo sapiens, UniProt P35367)
Galanin peptides = Galanin peptides (Homo sapiens, UniProt P22466)
[5] = target: Neuronal acetylcholine receptor subunit alpha-3 (Homo sapiens, UniProt P32297)
P2Y purinoceptor 1 = P2Y purinoceptor 1 (Homo sapiens, UniProt P47900)
P2X purinoceptor 1 = P2X purinoceptor 1 (Homo sapiens, UniProt P51575)
[6] = target: Protein kinase C alpha type (Homo sapiens, UniProt P17252)
[7] = target: 5-hydroxytryptamine receptor 3A (Homo sapiens, UniProt P46098)
[8] = target: Potassium voltage-gated channel subfamily A member 1 (Homo sapiens, UniProt Q09470)
D(1A) dopamine receptor = D(1A) dopamine receptor (Homo sapiens, UniProt P21728)
[9] = target: Pro-thyrotropin-releasing hormone (Homo sapiens, UniProt P20396)
VIP peptides = VIP peptides (Homo sapiens, UniProt P01282)
[10] = target: Beta-2 adrenergic receptor (Homo sapiens, UniProt P07550)
[11] = target: Neuropeptide Y receptor type 2 (Homo sapiens, UniProt P49146)
[12] = target: Peripheral-type benzodiazepine receptor-associated protein 1 (Homo sapiens, UniProt O95153)
[13] = target: Gamma-aminobutyric acid receptor subunit alpha-1 (Homo sapiens, UniProt P14867)
[14] = target: Gastrin/cholecystokinin type B receptor (Homo sapiens, UniProt P32239)
[15] = target: 5-hydroxytryptamine receptor 1B (Homo sapiens, UniProt P28222)
Adenosine receptor A1 = Adenosine receptor A1 (Homo sapiens, UniProt P30542)
[16] = target: Calcium-activated potassium channel subunit beta-1 (Homo sapiens, UniProt Q16558)
B2 bradykinin receptor = B2 bradykinin receptor (Homo sapiens, UniProt P30411)
[17] = target: Muscarinic acetylcholine receptor M4 (Homo sapiens, UniProt P08173)
Neurotensin/neuromedin N = Neurotensin/neuromedin N (Human, UniProt P30990)
Thromboxane A2 receptor = Thromboxane A2 receptor (Homo sapiens, UniProt P21731)
[18] = target: Voltage-dependent N-type calcium channel subunit alpha-1B (Homo sapiens, UniProt Q00975)
[19] = target: Muscarinic acetylcholine receptor M2 (Homo sapiens, UniProt P08172)
[20] = target: AP-4 complex subunit sigma-1 (Homo sapiens, UniProt Q9Y587)
Vasopressin V2 receptor = Vasopressin V2 receptor (Homo sapiens, UniProt P30518)
[21] = target: 5-hydroxytryptamine receptor 2C (Homo sapiens, UniProt P28335)
Substance-K receptor = Substance-K receptor (Homo sapiens, UniProt P21452)
Vasopressin V1b receptor = Vasopressin V1b receptor (Homo sapiens, UniProt P47901)
[22] = target: Type-1 angiotensin II receptor (Homo sapiens, UniProt P30556)
[23] = target: 5-hydroxytryptamine receptor 1D (Homo sapiens, UniProt P28221)

Measured: Ki

Sequence of Histamine H1 receptor (P35367 whole entry): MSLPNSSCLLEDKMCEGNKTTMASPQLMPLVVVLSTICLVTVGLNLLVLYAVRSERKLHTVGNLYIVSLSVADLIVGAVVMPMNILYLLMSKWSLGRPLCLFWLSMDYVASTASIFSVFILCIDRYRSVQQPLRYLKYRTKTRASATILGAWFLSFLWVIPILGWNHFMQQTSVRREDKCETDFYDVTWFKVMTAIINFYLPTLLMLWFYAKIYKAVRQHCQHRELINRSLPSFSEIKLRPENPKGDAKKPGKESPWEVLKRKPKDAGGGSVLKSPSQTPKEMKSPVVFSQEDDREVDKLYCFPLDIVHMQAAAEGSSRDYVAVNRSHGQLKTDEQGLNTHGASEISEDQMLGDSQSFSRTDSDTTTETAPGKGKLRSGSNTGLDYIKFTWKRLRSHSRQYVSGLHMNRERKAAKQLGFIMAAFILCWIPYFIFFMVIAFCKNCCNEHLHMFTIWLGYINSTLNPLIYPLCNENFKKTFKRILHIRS
Sequence of Adenosine receptor A1 (P30542 whole entry): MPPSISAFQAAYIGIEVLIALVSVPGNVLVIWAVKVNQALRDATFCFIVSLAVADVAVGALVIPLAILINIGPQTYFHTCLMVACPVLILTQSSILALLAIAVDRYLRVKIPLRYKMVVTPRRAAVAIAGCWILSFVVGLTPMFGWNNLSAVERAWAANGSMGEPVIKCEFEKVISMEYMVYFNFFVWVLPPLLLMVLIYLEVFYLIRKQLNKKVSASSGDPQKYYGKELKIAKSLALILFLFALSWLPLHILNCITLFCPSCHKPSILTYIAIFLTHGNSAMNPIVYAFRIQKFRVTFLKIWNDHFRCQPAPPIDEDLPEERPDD
Sequence of Muscarinic acetylcholine receptor M4 (P08173 whole entry): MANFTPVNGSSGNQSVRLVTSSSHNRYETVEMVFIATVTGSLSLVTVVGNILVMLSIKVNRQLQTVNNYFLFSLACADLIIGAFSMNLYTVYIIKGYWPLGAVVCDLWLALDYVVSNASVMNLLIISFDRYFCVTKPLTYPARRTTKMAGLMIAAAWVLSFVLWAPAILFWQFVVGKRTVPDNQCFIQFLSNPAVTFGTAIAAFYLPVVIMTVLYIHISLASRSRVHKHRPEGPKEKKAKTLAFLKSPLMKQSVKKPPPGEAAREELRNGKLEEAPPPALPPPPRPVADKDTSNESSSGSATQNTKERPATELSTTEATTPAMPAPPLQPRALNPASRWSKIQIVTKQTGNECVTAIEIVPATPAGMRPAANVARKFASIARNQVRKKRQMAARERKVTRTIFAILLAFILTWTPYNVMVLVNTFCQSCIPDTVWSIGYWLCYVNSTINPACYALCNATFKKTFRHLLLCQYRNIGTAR
Sequence of VIP peptides (P01282 125-152 limits assumed): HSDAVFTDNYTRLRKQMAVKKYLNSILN
Sequence of Neuropeptide Y receptor type 2 (P49146 whole entry): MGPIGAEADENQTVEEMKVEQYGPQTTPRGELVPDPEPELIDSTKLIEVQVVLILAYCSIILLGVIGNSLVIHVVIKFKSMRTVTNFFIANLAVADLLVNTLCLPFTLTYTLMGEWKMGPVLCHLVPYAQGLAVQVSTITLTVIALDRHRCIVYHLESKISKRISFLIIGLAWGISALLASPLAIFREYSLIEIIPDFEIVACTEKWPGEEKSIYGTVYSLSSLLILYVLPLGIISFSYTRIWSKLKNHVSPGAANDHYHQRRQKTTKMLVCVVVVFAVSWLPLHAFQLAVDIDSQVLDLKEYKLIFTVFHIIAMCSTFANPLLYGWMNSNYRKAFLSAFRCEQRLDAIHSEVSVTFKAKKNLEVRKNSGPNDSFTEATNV
Sequence of Voltage-dependent N-type calcium channel subunit alpha-1B (Q00975 whole entry): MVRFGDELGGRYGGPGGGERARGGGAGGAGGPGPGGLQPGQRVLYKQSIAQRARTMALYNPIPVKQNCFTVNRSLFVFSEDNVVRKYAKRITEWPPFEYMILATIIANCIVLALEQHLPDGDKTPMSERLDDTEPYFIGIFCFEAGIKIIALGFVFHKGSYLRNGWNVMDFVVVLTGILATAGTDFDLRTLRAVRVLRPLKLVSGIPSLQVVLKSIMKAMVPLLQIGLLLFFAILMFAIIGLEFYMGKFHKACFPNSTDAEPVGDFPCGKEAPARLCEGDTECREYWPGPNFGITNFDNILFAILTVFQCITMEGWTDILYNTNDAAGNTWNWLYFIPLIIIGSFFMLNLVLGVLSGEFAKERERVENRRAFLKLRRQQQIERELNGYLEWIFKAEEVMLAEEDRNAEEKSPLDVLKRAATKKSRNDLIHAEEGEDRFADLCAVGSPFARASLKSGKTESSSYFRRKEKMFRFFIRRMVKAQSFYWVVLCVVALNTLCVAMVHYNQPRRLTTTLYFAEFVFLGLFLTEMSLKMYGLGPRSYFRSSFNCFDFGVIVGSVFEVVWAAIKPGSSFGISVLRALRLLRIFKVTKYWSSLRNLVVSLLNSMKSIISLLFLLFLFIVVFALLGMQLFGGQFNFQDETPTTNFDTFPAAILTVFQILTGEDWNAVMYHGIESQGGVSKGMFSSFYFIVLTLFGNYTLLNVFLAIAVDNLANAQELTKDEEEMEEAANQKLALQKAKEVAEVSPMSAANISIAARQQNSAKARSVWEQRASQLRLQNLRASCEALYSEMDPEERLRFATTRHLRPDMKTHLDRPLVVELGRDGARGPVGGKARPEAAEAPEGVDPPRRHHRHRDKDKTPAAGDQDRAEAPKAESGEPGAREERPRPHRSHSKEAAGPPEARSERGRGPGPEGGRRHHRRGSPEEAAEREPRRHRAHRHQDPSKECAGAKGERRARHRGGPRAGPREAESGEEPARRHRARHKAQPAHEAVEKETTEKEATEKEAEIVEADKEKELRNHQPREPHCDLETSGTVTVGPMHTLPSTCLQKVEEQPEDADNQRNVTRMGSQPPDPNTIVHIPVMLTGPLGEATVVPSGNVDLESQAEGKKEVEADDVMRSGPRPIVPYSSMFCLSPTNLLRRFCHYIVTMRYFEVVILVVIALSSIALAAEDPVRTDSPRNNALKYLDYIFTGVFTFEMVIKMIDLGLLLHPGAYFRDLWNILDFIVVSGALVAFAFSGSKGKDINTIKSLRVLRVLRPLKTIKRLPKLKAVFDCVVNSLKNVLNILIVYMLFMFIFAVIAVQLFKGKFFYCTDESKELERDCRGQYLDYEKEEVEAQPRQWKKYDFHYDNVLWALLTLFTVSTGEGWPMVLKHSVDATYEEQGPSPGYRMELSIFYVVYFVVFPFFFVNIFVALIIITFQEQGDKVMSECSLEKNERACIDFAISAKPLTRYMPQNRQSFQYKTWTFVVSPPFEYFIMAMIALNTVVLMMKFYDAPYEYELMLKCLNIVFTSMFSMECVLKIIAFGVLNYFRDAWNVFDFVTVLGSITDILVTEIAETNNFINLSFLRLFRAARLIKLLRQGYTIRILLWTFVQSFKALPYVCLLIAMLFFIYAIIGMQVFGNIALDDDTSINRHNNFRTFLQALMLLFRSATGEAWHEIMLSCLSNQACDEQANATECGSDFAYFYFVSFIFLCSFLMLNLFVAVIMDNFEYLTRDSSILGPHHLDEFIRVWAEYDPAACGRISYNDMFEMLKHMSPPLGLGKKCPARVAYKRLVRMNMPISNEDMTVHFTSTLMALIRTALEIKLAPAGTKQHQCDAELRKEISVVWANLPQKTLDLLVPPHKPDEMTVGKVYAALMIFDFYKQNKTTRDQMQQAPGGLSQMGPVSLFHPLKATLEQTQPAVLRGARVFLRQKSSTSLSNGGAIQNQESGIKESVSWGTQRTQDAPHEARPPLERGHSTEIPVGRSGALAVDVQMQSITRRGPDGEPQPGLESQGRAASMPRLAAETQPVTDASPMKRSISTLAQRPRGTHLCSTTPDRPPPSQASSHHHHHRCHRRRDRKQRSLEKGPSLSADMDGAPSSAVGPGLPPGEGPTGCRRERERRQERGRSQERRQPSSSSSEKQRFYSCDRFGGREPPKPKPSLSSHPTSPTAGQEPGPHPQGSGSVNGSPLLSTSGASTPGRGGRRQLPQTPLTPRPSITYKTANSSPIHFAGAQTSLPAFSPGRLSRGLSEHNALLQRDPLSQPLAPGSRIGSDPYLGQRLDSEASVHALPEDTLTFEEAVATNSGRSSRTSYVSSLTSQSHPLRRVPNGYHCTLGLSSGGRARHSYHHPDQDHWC
Sequence of Substance-K receptor (P21452 whole entry): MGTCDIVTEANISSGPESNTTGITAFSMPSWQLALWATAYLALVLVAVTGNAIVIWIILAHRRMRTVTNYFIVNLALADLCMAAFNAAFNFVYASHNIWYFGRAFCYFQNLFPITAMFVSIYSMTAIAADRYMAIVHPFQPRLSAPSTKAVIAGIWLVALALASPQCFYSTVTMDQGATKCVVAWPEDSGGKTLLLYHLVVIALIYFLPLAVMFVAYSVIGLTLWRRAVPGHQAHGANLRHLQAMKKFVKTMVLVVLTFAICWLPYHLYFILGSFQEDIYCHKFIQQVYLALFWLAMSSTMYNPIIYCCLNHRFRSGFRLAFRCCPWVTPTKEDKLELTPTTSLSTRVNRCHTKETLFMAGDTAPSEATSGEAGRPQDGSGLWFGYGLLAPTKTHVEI
Sequence of Endothelin receptor type B (P24530 whole entry): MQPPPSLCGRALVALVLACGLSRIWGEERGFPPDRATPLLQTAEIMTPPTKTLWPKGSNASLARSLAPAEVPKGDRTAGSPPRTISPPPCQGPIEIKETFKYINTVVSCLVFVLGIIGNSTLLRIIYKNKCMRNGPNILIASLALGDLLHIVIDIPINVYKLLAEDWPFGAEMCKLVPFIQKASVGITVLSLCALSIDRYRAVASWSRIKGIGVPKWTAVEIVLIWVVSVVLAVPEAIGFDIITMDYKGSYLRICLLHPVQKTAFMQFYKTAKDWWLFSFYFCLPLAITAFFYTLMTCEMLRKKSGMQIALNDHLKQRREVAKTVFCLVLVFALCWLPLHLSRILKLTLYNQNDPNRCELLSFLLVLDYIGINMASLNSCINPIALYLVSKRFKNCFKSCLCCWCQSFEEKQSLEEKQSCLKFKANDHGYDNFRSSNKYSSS
Sequence of Galanin peptides (P22466 33-62 limits assumed): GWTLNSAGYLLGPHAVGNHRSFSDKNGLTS

Cc1ccc(Cn2nc(C(=O)NC3C(C)(C)C4CC[C@@]3(C)C4)cc2-c2ccc(Cl)c(C)c2)cc1 (stereo not given in full) [N-(1,3,3-trimethylbicyclo(2.2.1)heptan-2-yl)-5-(4-chloro-3-methylphenyl)-1-(4-methylbenzyl)pyrazole-3-carboxamide]
> 10 µM: all assays above
